Laboratory results reported in patent publication US12454534B2, “Pyrrolo[2,3-b]pyrazines as HPK1 inhibitor and the use thereof” (BEIGENE, LTD., priority 2019, dated 2025).
pIC50: −log10 of the molar value.

Each molecule was assayed against T1, HPK1 kinase (aa1-346, Life Technologies) (Homo sapiens, UniProt Q92918) (assay: HPK1 Kinase Activity Assay at 1 mM ATP (TR-FRET)). Conditions: HPK1 40 nM, read-out: Enzymatic activity IC50.
T1 construct: HPK1 kinase (aa1-346, Life Technologies); purchased Life Technologies
T1 sequence (Q92918 1-346): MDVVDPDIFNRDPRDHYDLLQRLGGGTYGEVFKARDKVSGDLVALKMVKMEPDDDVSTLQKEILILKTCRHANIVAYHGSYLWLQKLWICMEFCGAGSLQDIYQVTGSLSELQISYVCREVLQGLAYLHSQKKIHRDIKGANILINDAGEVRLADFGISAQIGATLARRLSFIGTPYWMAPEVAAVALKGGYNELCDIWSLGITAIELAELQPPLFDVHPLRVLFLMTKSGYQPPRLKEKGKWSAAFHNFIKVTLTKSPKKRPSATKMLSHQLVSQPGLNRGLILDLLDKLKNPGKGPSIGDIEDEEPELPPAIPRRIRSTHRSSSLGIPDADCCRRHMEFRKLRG
Assay type: biochemical
Protocol: HPK1 Kinase Activity Assay at 1 mM ATP
Compounds disclosed herein were tested for inhibition of HPK1 kinase (aa1-346, Life Technologies) activity in assays based on the time-resolved fluorescence-resonance energy transfer (TR-FRET) methodology. The assays were carried out in 384-well low volume black plates in a reaction mixture containing HPK1 kinase (40 nM), 1 mM ATP, 0.5 μM STK1 substrate and 0-10 μM compound in buffer containing 50 mM HEPES, 0.01% BSA, 0.1 mM Orthovanadate, 10 mM MgCl2, 1 mM DTT, pH=7.0, 0.005% Tween-20. The kinase was incubated with the compounds disclosed herein or DMSO for 60 minutes at room temperature and the reaction was initiated by the addition of ATP and STK1 substrate. After reaction at room temperature for 120 minutes, an equal volume of stop/detection solution was added according to the manufacturer's instruction (CisBio). The stop/detection solution contained STK Antibody-Cryptate and XL665-conjugated streptavidin in Detection Buffer. The TR-FRET signals (ratio of fluorescence emission at 665 nm over emission at 620 nm with excitation at 337 nm wavelength) were recorded on a PHERAstar FS plate reader (BMG Labtech). Phosphorylation of STK1 substrate led to the binding of STK Antibody-Cryptate to the biotinylated STK1 substrate, which places fluorescent donor (Eu^3+ cryptate) in close proximity to the accepter (Streptavidin-XL665), thus resulting in a high degree of fluorescence resonance energy transfer. The inhibition of HPK1 in presence of increasing concentrations of compounds was calculated based on the ratio of fluorescence at 665 nm to that at 620 nm. The IC50 for each compound was derived from fitting the data to the four-parameter logistic equation by Graphpad Prism software.

| pIC50 | SMILES |
| --- | --- |
| 7.43 | Cc1cc(-c2c[nH]c3ncc(-c4cc(C)c5c(c4)CN(CCC(=O)NC4CC4)CC5)nc23)ccc1C(=O)N(C)C [Example 43, 4-(2-(2-(3-(cyclopropylamino)-3-oxopropyl)-5-methyl-1,2,3,4-tetrahydroisoquinolin-7-yl)-5H-pyrrolo[2,3-b]pyrazin-7-yl)-N, N, 2-trimethylbenzamide] |
| 7.09 | COCCCNC(=O)CCN1CCc2c(C)cc(-c3cnc4[nH]cc(-c5ccc(C(=O)N(C)C)c(C)c5)c4n3)cc2C1 [Example 44, 4-(2-(2-(3-((3-methoxypropyl)amino)-3-oxopropyl)-5-methyl-1,2,3,4-tetrahydroisoquinolin-7-yl)-5H-pyrrolo[2,3-b]pyrazin-7-yl)-N, N, 2-trimethylbenzamide] |
| 7.28 | Cc1cc(-c2c[nH]c3ncc(-c4cc(C)c5c(c4)CN(CCC(=O)NCCO)CC5)nc23)ccc1C(=O)N(C)C [Example 45, 4-(2-(2-(3-((2-hydroxyethyl)amino)-3-oxopropyl)-5-methyl-1,2,3,4-tetrahydroisoquinolin-7-yl)-5H-pyrrolo[2,3-b]pyrazin-7-yl)-N, N, 2-trimethylbenzamide] |
| 7.19 | Cc1cc(-c2c[nH]c3ncc(-c4cc(C)c5c(c4)CN(CCC(=O)NCCCO)CC5)nc23)ccc1C(=O)N(C)C [Example 46, 4-(2-(2-(3-((3-hydroxypropyl)amino)-3-oxopropyl)-5-methyl-1,2,3,4-tetrahydroisoquinolin-7-yl)-5H-pyrrolo[2,3-b]pyrazin-7-yl)-N, N, 2-trimethylbenzamide] |
| 7.66 | Cc1cc(-c2cnc3[nH]cc(-c4ccc(C(=O)N(C)C)cc4)c3n2)cc2c1CCN(CCC(=O)NC1CC1)C2 [Example 47, 4-(2-(2-(3-(cyclopropylamino)-3-oxopropyl)-5-methyl-1,2,3,4-tetrahydroisoquinolin-7-yl)-5H-pyrrolo[2,3-b]pyrazin-7-yl)-N, N-dimethylbenzamide] |
| 7.19 | Cc1cc(-c2cnc3[nH]cc(-c4ccc(C(=O)N(C)C)cc4)c3n2)cc2c1CCN(CCC(=O)N[C@H]1CC[C@H](O)CC1)C2 [Example 48, 4-(2-(2-(3-(((1r, 4r)-4-hydroxycyclohexyl)amino)-3-oxopropyl)-5-methyl-1,2,3,4-tetrahydroisoquinolin-7-yl)-5H-pyrrolo[2,3-b]pyrazin-7-yl)-N, N-dimethylbenzamide] |
| 7.17 | Cc1cc(-c2cnc3[nH]cc(-c4ccc(C(=O)N(C)C)cc4)c3n2)cc2c1CCN(CCC(=O)NCCN1CCN(C)CC1)C2 [Example 49, N, N-dimethyl-4-(2-(5-methyl-2-(3-((2-(4-methylpiperazin-1-yl)ethyl)amino)-3-oxopropyl)-1,2,3,4-tetrahydroisoquinolin-7-yl)-5H-pyrrolo[2,3-b]pyrazin-7-yl)benzamide] |
| 6.86 | Cc1cc(-c2c[nH]c3ncc(-c4cc(C)c5c(c4)CN(CCN4CCOCC4)CC5)nc23)ccc1C(=O)N(C)C[C@@H]1CCOC1 [Example 50, (S)—N, 2-dimethyl-4-(2-(5-methyl-2-(2-morpholinoethyl)-1,2,3,4-tetrahydroisoquinolin-7-yl)-5H-pyrrolo[2,3-b]pyrazin-7-yl)-N-((tetrahydrofuran-3-yl)methyl)benzamide] |
| 7.44 | Cc1cc(-c2cnc3[nH]cc(-c4ccc(C(=O)N(C)C[C@@H]5CCOC5)cc4)c3n2)cc2c1CCN(CCN1CCOCC1)C2 [Example 51, (S)—N-methyl-4-(2-(5-methyl-2-(2-morpholinoethyl)-1,2,3,4-tetrahydroisoquinolin-7-yl)-5H-pyrrolo[2,3-b]pyrazin-7-yl)-N-((tetrahydrofuran-3-yl)methyl)benzamide] |

Further lines, the molecule ahead of its results:

| SMILES | pIC50 |
| --- | --- |
| Cc1cc(-c2c[nH]c3ncc(-c4cc(C)c5c(c4)CN(CCC(=O)NC[C@H](C)O)CC5)nc23)ccc1C(=O)N(C)C [Example 30, (S)-4-(2-(2-(3-(2-hydroxypropylamino)-3-oxopropyl)-5-methyl-1,2,3,4-tetrahydroisoquinolin-7-yl)-5H-pyrrolo[2,3-b]pyrazin-7-yl)-N, N, 2-trimethylbenzamide] | 7.20 |
| Cc1cc(-c2c[nH]c3ncc(-c4cc(C)c5c(c4)CN(CCC(=O)NC4(CO)CC4)CC5)nc23)ccc1C(=O)N(C)C [Example 31, 4-(2-(2-(3-(1-(hydroxymethyl)cyclopropylamino)-3-oxopropyl)-5-methyl-1,2,3,4-tetrahydroisoquinolin-7-yl)-5H-pyrrolo[2,3-b]pyrazin-7-yl)-N, N, 2-trimethylbenzamide] | 7.28 |
| Cc1cc(-c2c[nH]c3ncc(-c4cc(C)c5c(c4)CN(CCC(=O)NCC4(O)CC4)CC5)nc23)ccc1C(=O)N(C)C [Example 32, 4-(2-(2-(3-((1-hydroxycyclopropyl)methylamino)-3-oxopropyl)-5-methyl-1,2,3,4-tetrahydroisoquinolin-7-yl)-5H-pyrrolo[2,3-b]pyrazin-7-yl)-N, N, 2-trimethylbenzamide] | 7.15 |
| Cc1cc(-c2c[nH]c3ncc(-c4cc(C)c5c(c4)CN(CCC(=O)NCC(C)(C)O)CC5)nc23)ccc1C(=O)N(C)C [Example 33, 4-(2-(2-(3-(2-hydroxy-2-methylpropylamino)-3-oxopropyl)-5-methyl-1,2,3,4-tetrahydroisoquinolin-7-yl)-5H-pyrrolo[2,3-b]pyrazin-7-yl)-N, N, 2-trimethylbenzamide] | 7.31 |
| Cc1cc(-c2c[nH]c3ncc(-c4cc(C)c5c(c4)CN(CCC(=O)N[C@@H]4CCOC4)CC5)nc23)ccc1C(=O)N(C)C [Example 34, (R)—N, N, 2-trimethyl-4-(2-(5-methyl-2-(3-oxo-3-(tetrahydrofuran-3-ylamino)propyl)-1,2,3,4-tetrahydroisoquinolin-7-yl)-5H-pyrrolo[2,3-b]pyrazin-7-yl)benzamide] | 7.38 |
| Cc1cc(-c2cnc3[nH]cc(-c4ccc(C(=O)N(C)C[C@@H]5CCOC5)cc4)c3n2)cc2c1CCN(C)C2 [Example 35, (S)-4-(2-(2,5-dimethyl-1,2,3,4-tetrahydroisoquinolin-7-yl)-5H-pyrrolo[2,3-b]pyrazin-7-yl)-N-methyl-N-((tetrahydrofuran-3-yl)methyl)benzamide] | 7.72 |
| Cc1cc(-c2cnc3[nH]cc(-c4ccc(C(=O)N(C)C[C@@H]5CCOC5)cc4)c3n2)cc2c1CCN(CCN1CCC(C)(O)CC1)C2 [Example 36, (S)-4-(2-(2-(2-(4-hydroxy-4-methylpiperidin-1-yl)ethyl)-5-methyl-1,2,3,4-tetrahydroisoquinolin-7-yl)-5H-pyrrolo[2,3-b]pyrazin-7-yl)-N-methyl-N-((tetrahydrofuran-3-yl)methyl)benzamide] | 7.41 |
| Cc1cc(-c2cnc3[nH]cc(-c4ccc(C(=O)N(C)C)cc4)c3n2)cc2c1CCN(CCN1CCC(C)(O)CC1)C2 [Example 37, 4-(2-(2-(2-(4-hydroxy-4-methylpiperidin-1-yl)ethyl)-5-methyl-1,2,3,4-tetrahydroisoquinolin-7-yl)-5H-pyrrolo[2,3-b]pyrazin-7-yl)-N, N-dimethylbenzamide] | 7.46 |
| Cc1cc(-c2c[nH]c3ncc(-c4cc(C)c5c(c4)CN(C)CC5)nc23)ccc1C(=O)N(C)CC(C)(C)O [Example 39, 4-(2-(2,5-dimethyl-1,2,3,4-tetrahydroisoquinolin-7-yl)-5H-pyrrolo[2,3-b]pyrazin-7-yl)-N-(2-hydroxy-2-methylpropyl)-N, 2-dimethylbenzamide] | 6.73 |
| COCCCN(C)C(=O)c1ccc(-c2c[nH]c3ncc(-c4cc(C)c5c(c4)CN(C)CC5)nc23)cc1 [Example 40, 4-(2-(2,5-dimethyl-1,2,3,4-tetrahydroisoquinolin-7-yl)-5H-pyrrolo[2,3-b]pyrazin-7-yl)-N-(3-methoxypropyl)-N-methylbenzamide] | 7.77 |
| Cc1cc(-c2c[nH]c3ncc(-c4cc(C)c5c(c4)CN(CCC(=O)N[C@H]4CC[C@@H](O)CC4)CC5)nc23)ccc1C(=O)N(C)C [Example 41, 4-(2-(2-(3-((cis-4-hydroxycyclohexyl)amino)-3-oxopropyl)-5-methyl-1,2,3,4-tetrahydroisoquinolin-7-yl)-5H-pyrrolo[2,3-b]pyrazin-7-yl)-N, N, 2-trimethylbenzamide] | 7.27 |
| Cc1cc(-c2c[nH]c3ncc(-c4cc(C)c5c(c4)CN(CCC(=O)NCCN4CCN(C)CC4)CC5)nc23)ccc1C(=O)N(C)C [Example 42, N, N, 2-trimethyl-4-(2-(5-methyl-2-(3-((2-(4-methylpiperazin-1-yl)ethyl)amino)-3-oxopropyl)-1,2,3,4-tetrahydroisoquinolin-7-yl)-5H-pyrrolo[2,3-b]pyrazin-7-yl)benzamide] | 7.07 |
